From patent publication US20260325685A1, “Radiopharmaceutical Compositions Targeting Carbonic Anhydrase IX and Uses Thereof” (RayzeBio, Inc., priority 2023, published 2026)
pKd: −log10 of the molar value.

How the values were obtained:
[1] = molecular target: T1, human CA-IX (Homo sapiens, UniProt Q16790); test: Surface Plasmon Resonance (SPR) binding kinetics to recombinant human CA-IX (Biacore 8K, single-cycle kinetics, 1:1 binding model); conditions: Chelated Metal: Lu-175; SPR, 25° C., pH 7.4; read-out: CAIX KD
T1 construct: purchased Acro CA9-H82E3
Method in brief: (§1)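 Kinetics are measured at 25° C against streptavidin-captured CA-IX or CA-XII (1200-1800 RU) in PBS-P+ buffer, pH 7.4, containing 1% DMSO. Nine analyte concentrations span 100-0.39 nM, with 1200 s dissociation.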

[2] = molecular target: T2, human CA-XII (Homo sapiens, UniProt O43570); test: Surface Plasmon Resonance (SPR) binding kinetics to recombinant human CA-XII (Biacore 8K, single-cycle kinetics, 1:1 binding model); conditions: Chelated Metal: Lu-175, 25° C., pH 7.4, read-out: CAXII KD
T2 construct: purchased Creative BioMart CA12-261H
Method in brief: as §1

T2 sequence (O43570 25-354): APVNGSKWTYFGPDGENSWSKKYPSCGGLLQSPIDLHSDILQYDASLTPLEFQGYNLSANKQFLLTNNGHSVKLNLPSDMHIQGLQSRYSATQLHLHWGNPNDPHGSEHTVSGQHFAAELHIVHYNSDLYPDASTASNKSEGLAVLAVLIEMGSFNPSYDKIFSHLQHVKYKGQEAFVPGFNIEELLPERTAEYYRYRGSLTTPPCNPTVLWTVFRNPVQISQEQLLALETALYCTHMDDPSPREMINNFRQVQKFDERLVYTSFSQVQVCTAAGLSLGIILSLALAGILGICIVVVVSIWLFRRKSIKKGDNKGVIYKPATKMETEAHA

SMILES	pKd [1]	pKd [2]
NS(=O)(=O)c1nnc(NC(=O)C23CC(c4cn(CCNC(=O)[C@@H]5CN(C(=O)CN6CCN(CC(=O)O)CCN(CC(=O)O)CCN(CC(=O)O)CC6)CCN5C(=O)CNC(=O)C5(C(=O)O)CCN(C(=O)Cc6n[nH]c7ccc(F)cc67)CC5)nn4)(C2)C3)s1.[Lu+3] [Compound 112.15]	8.60 to 9.00	< 8.00
C[C@H](Nc1c(F)c(S(N)(=O)=O)c(F)c(F)c1S(=O)(=O)CCOCc1cn(CCNC(=O)[C@H]2CN(C(=O)CN3CCN(CC(=O)O)CCN(CC(=O)O)CCN(CC(=O)O)CC3)CCN2C(=O)C[C@H](NC(=O)[C@@H]2COCCN2C(=O)CCCc2ccc(O)cc2)C(=O)O)nn1)C1CCCC1.[Lu+3] [Compound 107.42]	> 9.00	8.00 to 8.60
CC(CCOC(=O)N1CCC(C(N)=O)(C(=O)NCC(=O)N2CCN(C(=O)CN3CCN(CC(=O)O)CCN(CC(=O)O)CCN(CC(=O)O)CC3)C[C@H]2C(=O)NCCn2cc(C34CC(C(=O)Nc5nnc(S(N)(=O)=O)s5)(C3)C4)nn2)CC1)(c1ccc(O)cc1)c1ccc(O)cc1.[Lu+3] [Compound 107.57]	8.60 to 9.00	< 8.00
